Measurements as given in patent US12616716B2, “Wound healing dressings and formulations and methods of use thereof” (Polaroid IP B.V., priority 2023, dated 2026).
Converted amounts (≈) assume the structure as drawn. Marks after values point to notes of the source that are not given here.

Key:
[1] = system: Enterococcus faecalis EF19433; assay: MBC, spot plating after 24 h in MH broth; conditions: Table 18; —: no activity observed
Description: (§5) To determine MBC compound concentrations breakpoints were estimated from MIC curves. Overnight cultures were set up as described above for all bacterial strains. The following day overnight cultures were adjusted to give a cell density of 5×10^5 cells per mL. Briefly, cultures were adjusted to the McFarland standard (0.08-0.12) and diluted (1:150). Adjusted cultures were inoculated into 96 well plates with 50 μL sterile Muller-Hinton broth (MHB) and 2 concentrations of each compound. […] MBC cultures were quantified by serial dilution in a 96 well plate and spot plating onto Muller-Hinton agar (MHA). MHA plates were incubated at 37° C. for 24 h and counted. Results are presented as CFU per mL.
(§6) To determine MBC compound concentrations, breakpoints were estimated from MIC curves. Overnight cultures were set up as described above for all bacterial strains. The following day overnight cultures were adjusted to give a cell density of 5×10^5 cells per mL. Briefly, cultures were adjusted to the McFarland standard (0.08-0.12) and diluted (1:150). Adjusted cultures were inoculated into 96 well plates with 50 μL sterile Muller-Hinton broth (MHB) and 2 concentrations of each compound. […] MBC cultures were quantified by serial dilution in a 96 well plate and spot plating onto Muller-Hinton agar (MHA). MHA plates were incubated at 37° C. for 24 hours and counted.
(§7) These compounds were tested for their MBC against a panel of ATCC and nosocomial bacteria.

[2] = system: Staphylococcus aureus ATCC 29213; assay: MIC, broth microdilution in MH broth with resazurin; type: cell-based; conditions: for MIC SA29213: Table 17, modified Gompertz fit, only values marked ^ are reliable estimates, others unreliable
[3] = system: Klebsiella pneumoniae KL1; assay: as above; type: cell-based; conditions: Table 17; modified Gompertz fit; only values marked ^ are reliable estimates, others unreliable
[4] = system: Enterococcus faecalis EF51299; assay: as above; type: cell-based; conditions: for MIC EF51299: Table 17, modified Gompertz fit, only values marked ^ are reliable estimates, others unreliable
Escherichia coli EC25922 [5] = assay: MBC, spot plating after 24 h in MH broth; conditions: Table 18; —: no activity observed
Description: as §5, §6, §7

[6] = system: Klebsiella pneumoniae KL1; assay: MBC, spot plating after 24 h in MH broth; conditions: Table 18; —: no activity observed
Description: as §5
(§8) To determine MBC compound concentrations, breakpoints were estimated from MIC curves. Overnight cultures were set up as described above for all bacterial strains. The following day overnight cultures were adjusted to give a cell density of 5×10^5 cells per mL. Briefly, cultures were adjusted to the McFarland standard (0.08-0.12) and diluted (1:150). Adjusted cultures were inoculated into 96 well plates with 50 μL sterile Muller-Hinton broth (MHB) and 2 concentrations of each compound. […] MBC cultures were quantified by serial dilution in a 96 well plate and spot plating onto Muller-Hinton agar (MHA). MHA plates were incubated at 37° C. for 24 hours and counted. […]

[7] = system: Enterococcus faecalis EF19433; assay: MIC, broth microdilution in MH broth with resazurin; type: cell-based; conditions: for MIC EF19433: Table 17, modified Gompertz fit, only values marked ^ are reliable estimates, others unreliable
[8] = system: Human Keratinocyte (HaCaT) cells; assay: LDH cytotoxicity assay, HaCaT; type: cell-based; conditions: Table 16, summarized cell toxicity values
Description: (§1) Primary Human Dermal Fibroblast (HDFs) and Human Keratinocyte (HaCaT) cells were selected for cytotoxicity and proliferation testing. HDFs were cultured in high glucose, no glutamine, no phenol red, Dulbecco's Modified Eagle Medium (DMEM) (GIBCO™). HDF media was further supplemented with 10% heat-inactivated fetal bovine serum (GIBCO™), 1% L-glutamine (GIBCO™) and 1% Penicillin-streptomycin (GIBCO™). HaCaTs cells were cultured in high glucose, no glutamine, no calcium DMEM (GIBCO™) supplemented with 10% heat inactivated foetal bovine serum, 1% L-glutamine, 1% Penicillin-streptomycin 1 mM calcium chloride (Sigma) throughout.
(§2) Mammalian cell populations were maintained in standard culture conditions at 37° C., 5% CO2 and >95% relative humidity. Upon reaching 80% total confluency, cells were removed from the incubator, the culture media aspirated, and the monolayer washed with Dulbecco's […] (DPBS). After washing, 10 mL of 1% trypsin (GIBCO™) was added to the flask and incubated to facilitate the detachment of cells from the culture vessel. Following dissociation, 10 mL of culture media was then added to each flask to neutralize the trypsin enzyme activity. The total 20-mL flask volume was transferred into a universal tube and centrifuged at 400 rcf for 5 minutes. Once complete, the pellet of cells was re-suspended in 10 mL warmed culture media and the number of cells per mL was determined using a hemocytometer counting chamber. Cell suspensions were then adjusted to 5×10^4 cells/mL for HDFs and 1×10^5 cells/mL for HaCaTs. 100 μL of the cell suspension was added to each well of a sterile, cell-culture-treated 96-well microtiter plate. The plates were incubated in standard culture conditions for 16-24 hours to allow cellular adherence to the culture vessel. […] Culture plates were removed from the incubator, the media removed; and monolayers washed with 100 μL of warmed DPBS. The contents of the test item dilution plates were transferred to the culture plates. […]
(§3) The secretion of lactate dehydrogenase (LDH) enzyme was used for quantitatively measuring cell damage and cytotoxicity. As damage to the cell plasma membrane releases LDH into the cell culture media, the extracellular LDH in the media can be quantified by a coupled enzymatic reaction in which LDH catalyzes the conversion of lactate to pyruvate via NAD+ reduction to NADH. […]
(§4) Following incubation with the selected compounds, 50 μL of media from each well was transferred to the corresponding well of a fresh 96 well culture plate. The presence of Lactate dehydrogenase (LDH) was then quantified using the INVITROGEN™ CyQUANT™ LDH Cytotoxicity Assay, fluorescence kit. Total fluorescence was measured by reading the plates on a plate reader at an excitation of 560 nm and an emission of 590 nm. […]

[9] = system: Primary Human Dermal Fibroblast (HDFs); assay: LDH cytotoxicity assay, HDF; type: cell-based; conditions: Table 16, summarized cell toxicity values
Description: as §1, §2, §3, §4

Escherichia coli EC25922 [10] = assay: MIC, broth microdilution in MH broth with resazurin; type: cell-based; conditions: Table 17; modified Gompertz fit; only values marked ^ are reliable estimates, others unreliable
[11] = system: Staphylococcus aureus ATCC 29213; assay: MBC, spot plating after 24 h in MH broth; conditions: Table 18; —: no activity observed
Description: as §5, §6, §7

[12] = system: Pseudomonas aeruginosa 27853; assay: MIC, broth microdilution in MH broth with resazurin; type: cell-based; conditions: Table 17; modified Gompertz fit; only values marked ^ are reliable estimates, others unreliable
[13] = system: Staphylococcus aureus MR1; assay: MBC, spot plating after 24 h in MH broth; conditions: Table 18; —: no activity observed
Description: as §5, §6, §7

[14] = system: Staphylococcus aureus MR1; assay: MIC, broth microdilution in MH broth with resazurin; type: cell-based; conditions: Table 17; modified Gompertz fit; only values marked ^ are reliable estimates, others unreliable
[15] = system: Enterococcus faecalis EF51299; assay: MBC, spot plating after 24 h in MH broth; conditions: Table 18; —: no activity observed
Description: as §5, §8

[16] = system: Staphylococcus aureus NRS384; assay: MIC, broth microdilution in MH broth with resazurin; type: cell-based; conditions: Table 21 (Example 8); Staphylococcus aureus NRS384; read-out: MIC Concentration
S. aureus NRS 384 = assay: Mouse Staphylococcus aureus-induced wound infection model, bacteria load in wound site; conditions: 50 μL/wound site
[17] = system: all tested bacteria (Gram-positive and Gram-negative); assay: MIC / antimicrobial activity over the whole panel of tested bacteria
[18] = system: mammalian cells (HDF and HaCaT); assay: Mammalian cell cytotoxicity (LDH and MTS), both cell populations; type: cell-based, human
Description: as §1
Mammalian cell populations were maintained in standard culture conditions at 37° C., 5% CO2 and >95% relative humidity. […] Once complete, the pellet of cells was re-suspended in 10 mL warmed culture media and the number of cells per mL was determined using a hemocytometer counting chamber. […]
as §3

SMILES | MBC EF19433 [1] | MIC SA29213 [2] | MIC KL1 [3] | MIC EF51299 [4] | MBC EC25922 (Escherichia coli EC25922 [5]) | MIC EF19433 [7] | Mammalian Cell Cytotoxicity, HaCaT [8] | Mammalian Cell Cytotoxicity, HDF [9] | MIC EC25922 (Escherichia coli EC25922 [10]) | MBC SA29213 [11] | MIC PA27853 [12] | MBC MR1 [13] | MIC MR1 [14] | other results
CCCCCCCCCCCCCCCCCC[N+](C)(C)CCOCCO.[Br-] [Compound 39637_109466] | 1.57 µM | 3.05 µM | 2.06 µM | 16.81^ μM | 25 µM | 2.59^ μM | 6.3 µM | 6.3 µM | 59.94 µM | 1.57 µM | 62.14^ μM | 6.25 µM | 10.78^ μM | MBC KL1 [6]: 50 µM; MBC EF51299 [15]: 1.57 µM
CC(=O)O[C@H]1C[C@@]2(C)[C@@H](C[C@@H](O)[C@H]3[C@@]4(C)CC[C@@H](O)[C@@H](C)[C@@H]4CC[C@@]32C)/C1=C(\CCC=C(C)C)C(=O)O [fusidic acid] |  |  |  |  |  |  |  |  |  |  |  |  |  | MIC [16]: 0.04 µM (≈ 0.0207 µg/mL); MIC ([2]; ATCC29213, Table 21 (Example 8), Staphylococcus aureus 29213, read-out: MIC Concentration): 0.04 µM (≈ 0.0207 µg/mL); MIC ([4]; Table 21 (Example 8), Enterococcus faecalis EF51299, read-out: MIC Concentration): 5 µM (≈ 2.58 µg/mL); MIC ([7]; Table 21 (Example 8), Enterococcus faecalis EF19433, read-out: MIC Concentration): 5 µM (≈ 2.58 µg/mL)
CCCCCC[N+](C)(C)CCOCCO.[Br-] [Compound 40598_109448] |  | 1.93 µM | 48.98 µM |  |  | Unstable | >100 µM | >100 µM | 0.83 µM |  | 0.06 µM |  |  | 
CCCCCCCCCCCCCCCCCC[N+](C)(C)CCOCCO.[Br-] [Compound 39637] |  |  |  |  |  |  |  |  |  |  |  |  |  | Ig(CFU/wound site) 24 h p.i. (S. aureus NRS 384; Study I, 100 μM, once a day): 8.49 ± 0.30 Ig(CFU/wound site); ΔIg(CFU/wound site) vs 12 h infection control (S. aureus NRS 384; Study I, 100 μM, once a day): −0.23 ± 0.06 Ig(CFU/wound site); ΔIg(CFU/wound site) vs 24 h infection control (S. aureus NRS 384; Study I, 100 μM, once a day): −0.29 ± 0.30 Ig(CFU/wound site); Ig(CFU/wound site) 12 h p.i. (S. aureus NRS 384; Study I, 100 μM, once a day from 5 min p.i., inoculum 4.20E+06 CFU/wound site): 8.35 ± 0.06 Ig(CFU/wound site); Ig(CFU/wound site) 24 h p.i. (S. aureus NRS 384; Study II, 300 μM, once a day): 8.90 ± 0.10 Ig(CFU/wound site); ΔIg(CFU/wound site) vs 12 h infection control (S. aureus NRS 384; Study II, 300 μM, once a day): −0.45 ± 0.40 Ig(CFU/wound site); ΔIg(CFU/wound site) vs 24 h infection control (S. aureus NRS 384; Study II, 300 μM, once a day): 0.04 ± 0.10 Ig(CFU/wound site); Ig(CFU/wound site) 12 h p.i. (S. aureus NRS 384; Study II, 300 μM, once a day, inoculum 2.50E+06 CFU/wound site): 8.14 ± 0.40 Ig(CFU/wound site); Ig(CFU/wound site) 12 h p.i. (S. aureus NRS 384; Study II, 1000 μM, once a day): 5.44 ± 0.94 Ig(CFU/wound site); Ig(CFU/wound site) 24 h p.i. (S. aureus NRS 384; Study II, 1000 μM, once a day): 5.81 ± 1.79 Ig(CFU/wound site); ΔIg(CFU/wound site) vs 12 h infection control (S. aureus NRS 384; Study II, 1000 μM, once a day): −3.15 ± 0.94 Ig(CFU/wound site); ΔIg(CFU/wound site) vs 24 h infection control (S. aureus NRS 384; Study II, 1000 μM, once a day): −3.06+1.79** Ig(CFU/wound site); antimicrobial activity towards the gram +ve species Enterococcus faecalis and Staphylococcus aureus (in words) [17]: strong antimicrobial activity; concentration with almost total/complete absence of viable cells ([18]; HDF and HaCaT): 6.3 µM; concentration at which LDH secretion began to rapidly exceed control levels ([18]; HDF and HaCaT populations): 3.12 µM
CCCCCCCCCCCCCCCCCC[N+](C)(C)CCOCCO.[Br-] [Compound 39637_105543] | 1.57 µM | 3.16 µM | +infinity | 62.65^ μM | 25 µM | 3.20^ μM | 6.3 µM | 6.3 µM | 42.96 µM | 1.57 µM | 53.54 µM | 6.25 µM | 10.58^ μM | 
CCCCCCCCCCCC[N+](C)(C)CCOCCO.[Br-] [Compound 40597_109444] |  |  | 0.01 µM | 27.19^ μM |  | 1.63^ μM | 100 µM | 100 µM |  |  | 2.84 µM |  | 0.94 µM | 
